Where two headings read alike, the source gives them in different places.
Columns and labels:
PC-9 = assay: Cell proliferation assay, PC-9 cells (CellTiter-Glo, 72 hours); assay type: cell-based; conditions: PC9 cells, CellTiter-Glo, read-out: PC9 GI50
Experimental: (§1) Biological Example 2: Cell Proliferation Assays
(§2) Ba/F3 cells expressing EGFR mutations were seeded in 384-well plates at 5000 cells/well in RPMI1640 medium containing […]. PC-9 at 500 cells/well was seeded into 384-well plates in RPMI1640 medium with 10% FBS. After overnight incubation, the assay plates were dosed with compounds at a series of concentrations. Alongside dosing the assay plates, the day 0 plate was processed using CellTiter-Glo® Luminescent Cell Viability Assay (Promega) to measure the number of viable cells (G0). The assay plates were further incubated for 72 hours and the number of viable cells (G3) was measured. The percentage of proliferation was calculated as: […]=100×(G3 value of sample well−G0 value)/(G3 value of DMSO control−G0 value). The concentration of compound producing 50% proliferation inhibition (GI50) was further calculated in best-fit curves using XLFit software. N/A=not available.

[1] = tested on: Ba/F3 cells expressing EGFR mutations; assay: Cell proliferation assay, Ba/F3 cells expressing EGFR mutations (CellTiter-Glo, 72 hours); assay type: cell-based; conditions: CellTiter-Glo
Experimental: as §1, §2

[2] = BaF3 cells, EGFR DEL19-C797S, read-out: DEL19-C797S/BaF3 GI50
[3] = BaF3 cells, EGFR DEL19-T790-C797S, read-out: DEL19-T790-C797S/BaF3 GI50
[4] = BaF3 cells, EGFR L858R, read-out: L858R/BaF3 GI50
[5] = BaF3 cells, EGFR L858R-C797S, read-out: L858R-C797S/BaF3 GI50
[6] = BaF3 cells, EGFR L858R-T790-C797S, read-out: L858R-T790-C797S/BaF3 GI50
[7] = BaF3 cells, EGFR L858R-T790M, read-out: L858R-T790M/BaF3 GI50
[8] = EGFR DEL19-T790M, read-out: DEL19-T790M GI50

SMILES	GI50 (PC-9) [nM]	GI50 [1, 2] [nM]	GI50 [1, 3] [nM]	GI50 [1, 4] [nM]	GI50 [1, 5] [nM]	GI50 [1, 6] [nM]	GI50 [1, 7] [nM]	GI50 [1, 8] [nM]	GI50 (PC-9; Homo sapiens, PC-9, 72 h) [nM]	GI50 ([1]; Mus musculus, BaF3, 72 h, BaF3 cells, EGFR DEL19-C797S, read-out: DEL19-C797S/BaF3 GI50) [nM]	GI50 ([1]; Mus musculus, BaF3, 72 h, BaF3 cells, EGFR DEL19-T790-C797S, read-out: DEL19-T790-C797S/BaF3 GI50) [nM]	GI50 ([1]; Mus musculus, BaF3, 72 h, BaF3 cells, EGFR L858R, read-out: L858R/BaF3 GI50) [nM]	GI50 ([1]; Mus musculus, BaF3, 72 h, BaF3 cells, EGFR L858R-C797S, read-out: L858R-C797S/BaF3 GI50) [nM]	GI50 ([1]; Mus musculus, BaF3, 72 h, BaF3 cells, EGFR L858R-T790-C797S, read-out: L858R-T790-C797S/BaF3 GI50) [nM]	GI50 ([1]; Mus musculus, BaF3, 72 h, BaF3 cells, EGFR L858R-T790M, read-out: L858R-T790M/BaF3 GI50) [nM]	GI50 ([1]; Mus musculus, BaF3, 72 h, EGFR DEL19-T790M, read-out: DEL19-T790M GI50) [nM]
CN1CC2(CCN(c3ccc4nc5n(c4c3)C34CCC(CN(CCOc6c(cnn6C)-c6cc(cn(C)c6=O)C(=O)N5)C3)C4)C2)C1 (single isomer, unassigned) [Example A73A]	515	94	302	550	357	184	1100	190	–	–	–	–	–	–	–	–
CN(C)CC1(F)CN(c2ccc3nc4n(c3c2)C23CCC(CN(CCOc5c(cnn5C)-c5cc(cn(C)c5=O)C(=O)N4)C2)C3)C1 (single isomer, unassigned) [Example A72A]	1060	351	1060	866	632	1820	2770	1230	–	–	–	–	–	–	–	–
CN(C)[C@H]1CCN(c2ccc3nc4n(c3c2)C23CCC(CN(CCOc5c(cnn5C)-c5cc(cn(C)c5=O)C(=O)N4)C2)C3)C1 (single isomer, unassigned) [Example A66A]	705	177	466	1140	709	600	2130	622	–	–	–	–	–	–	–	–
CN1CCN(C2CCN(c3ccc4nc5n(c4c3)C34CCC(CN(CCOc6c(cnn6C)-c6cc(cn(C)c6=O)C(=O)N5)C3)C4)C2)CC1 (single isomer, unassigned) [Example A80A, 15,21-Dimethyl-5-[3-(4-methylpiperazin-1-yl)pyrrolidin-1-yl]-23-oxa-2,9,11,15,20,21,26-heptaazaheptacyclo[24.4.1.1^{1,28}.1^{13,17}.0^{2,10}.0^{3,8}.0^{18,22}]tritriaconta-3,5,7,9,13,17(33),18(22),19-octaene-12,16-dione]	295	135	587	312	193	523	450	477	–	–	–	–	–	–	–	–
CN1CCN(C2CCN(c3ccc4nc5n(c4c3)C34CCC(CN(CCOc6c(cnn6C)-c6cc(cn(C)c6=O)C(=O)N5)C3)C4)C2)CC1 (single isomer, unassigned) [Example A80B2, 15,21-Dimethyl-5-[3-(4-methylpiperazin-1-yl)pyrrolidin-1-yl]-23-oxa-2,9,11,15,20,21,26-heptaazaheptacyclo[24.4.1.1^{1,28}.1^{13,17}.0^{2,10}.0^{3,8}.0^{18,22}]tritriaconta-3,5,7,9,13,17(33),18(22),19-octaene-12,16-dione]	3.6	0.5	0.7	0.63	0.5	0.73	0.67	0.7	–	–	–	–	–	–	–	–
CN(C)[C@@H]1CCN(c2ccc3nc4n(c3c2)C23CCC(CN(CCOc5c(cnn5C)-c5cc(cn(C)c5=O)C(=O)N4)C2)C3)C1 (single isomer, unassigned) [Example A66C]	703	156	548	1580	688	549	1520	723	–	–	–	–	–	–	–	–
C[C@@H]1CCCOc2c(cnn2C)-c2cc(cn(C3CC3)c2=O)C(=O)Nc2nc3ccc(N4CCN(C)CC4)cc3n2C1 [Example A15, (11R)-26-cyclopropyl-5,11-dimethyl-16-(4-methylpiperazin-1-yl)-7-oxa-4,5,13,20,22,26-hexaazapentacyclo[22.3.1.0^{2,6}.0^{13,21}.0^{14,19}]octacosa-1(28),2(6),3,14,16,18,20,24-octaene-23,27-dione]	–	–	–	–	–	–	–	–	2070	495	2100	1390	1580	4910	1550	2620
